Experimental findings from EP2386552A1, “Process for the preparation of (R) a-lipoic acid salts, their formulation and use in pharmaceutical compositions, in form of tablets containing them” (priority 2010, dated 2011) are described below.

Data set [1] is described as follows: Release test of tablets (Eur. Ph. 2.9.3, blade stirrer, artificial gastric buffer without pepsin). The data set is classed as physicochemical. To be noted: tablets containing the salt; compared with tablets containing other known salts. How it is done: The release test was carried out according to Eur. Ph. 2.9.3 with a blade stirrer (100 rpm) in 1000 mL of artificial gastric buffer without pepsin (Eur. […] The title is carried out by drawing 10 mL of medium, filtering on paper then evaluating the acid content by the spectrophotometer at the wavelength of 330 nm versus standard. The tablet hardness (N) is evaluated by a Schleuninger 6D durometer. The compression force was settled to obtain three intervals of tablet hardness: 40-90 N; 90-120Ne> […]. Table 2 : release of (R) α-lipoic acid tablet

Data set [2] is described as follows: pH of 1 % solution in water. The data set is classed as physicochemical.
A short description of another data set: Powder apparent density. To be noted: in g/mL. In kind it is physicochemical. The text has this: As solvents, 1-4 carbon atom aliphatic alcohols are used, having linear or branched chain, pure or denaturated by usual denaturants, optionally in a mixture with water or among them or with the mother liquors coming from a previous production cycle that used the same raw materials. The use of ketones, like acetone, as such, (Ex.7, 9) or in a mixture with some of the above mentioned alcohols (Ex.11, 12), produces an amorphous precipitate not suitable to be utilized for the direct compression because of the powder very low density. For industrial purpose a powder having low density (<0,2 g/mL) requires an additional operation (compactation / dry granulation / humid granulation) to produce tablets.

The nature of data set [3]: Absorption and bioavailability of tablets. The data set is classed as in vivo. The settings on record: formulated in tablet; compared with the corresponding tromethamine salt and lipoic acid as a racemate at equivalent doses.

Consider `O=C(O)CCCC[C@@H]1CCSS1` [Ex. 8, Piperazine (R) α-lipoato (2:1)], for which, in data set [1], the dissolution profile entry was “dissolution profile better”. Also, in data set [2], the “pH 1 % in water” value came out at 5.5. In addition, the Powder apparent density in “Powder apparent density” is recorded as 0.5-0.6. Moreover, in data set [3], the absorption and bioavailability entry was “better absorption and bioavailability”.
Consider `O=C(O)CCCC[C@@H]1CCSS1` [Ex. 6, Cystamine (R) α-lipoate], for which the dissolution profile entry in data set [1] is reported as “dissolution profile better”. Besides, the “pH 1 % in water” value in data set [2] was 6.6.
On to `O=C(O)CCCC[C@@H]1CCSS1` [Ex. 1, Trometamol (R) α-lipoate, reference compound], for which the “pH 1 % in water” value in data set [2] was determined as 6.6. Also, the Powder apparent density in the data set “Powder apparent density” is 0.5-0.7.
As for `O=C(O)CCCC[C@@H]1CCSS1` [Ex. 7, Diazobicyclo [2,2,2] octane (R) α-lipoate], the dissolution profile entry in data set [1] is listed as “dissolution profile better”. Further, the “pH 1 % in water” value in data set [2] was found to be 5.2. In addition, the Powder apparent density in the data set “Powder apparent density” is reported as 0.4-0.6.
For the compound `O=C(O)CCCC[C@@H]1CCSS1` [Ex. 12, Piperazine (R) α-lipoate (1:1)], the “pH 1 % in water” value in data set [2] is 7.2.
